Experiment: logP determination by HPLC on reverse-phase column (C 18), EEC directive 79/831 Annex V.A8
Type: physicochemical
Protocol: In the acidic range, the determination is carried out at pH 2.3 using the mobile phases 0.1% aqueous phosphoric acid and acetonitrile; linear gradient from 10% acetonitrile to 90% acetonitrile.
In the neutral range, the determination is carried out at pH 7.5 using the mobile phases 0.01 molar aqueous phosphate buffer solution and acetonitrile; linear gradient from 10% acetonitrile to 90% acetonitrile.

[1] = reverse-phase HPLC column (C 18), pH 2.3, acidic range, pH 2.3; 0.1% aqueous phosphoric acid/acetonitrile gradient; 43° C.; values marked a)
[2] = reverse-phase HPLC column (C 18), pH 7.5, neutral range, pH 7.5; 0.01 molar aqueous phosphate buffer/acetonitrile gradient; 43° C.; values marked b)

Row | SMILES | chromatographic logP [1] | chromatographic logP [2]
1 | O=C1CCC(c2ccc(-c3ccc(OC(F)(F)F)cc3)cc2)N1 (centres unmarked) [Example V-27] | 2.96 | –
2 | O=C1CCC(c2ccc(-c3ccc(Br)cc3)cc2)N1 (centres unmarked) [Example V-28] | 2.76 | –
3 | CC(C)(C)OC(=O)N1C(=O)C(C(=O)c2ccccc2Br)CC1c1ccc(OC(F)(F)F)cc1 (centres unmarked) [II-1, tert-butyl 3-(2-bromobenzoyl)-2-oxo-5-[4-(trifluoromethoxy)phenyl]-1-pyrrolidinecarboxylate] | – | 3.35
4 | CC(C)(C)OC(=O)N1C(=O)C(C(=O)c2ccc(Cl)cc2)CC1c1ccc(F)cc1 (centres unmarked) [II-2] | 4.13 | –
5 | CC(C)(C)OC(=O)N1C(=O)C(C(=O)c2ccccc2C(F)(F)F)CC1c1ccc(Br)cc1 (centres unmarked) [II-3] | – | 3.03
6 | Cc1ccccc1C(=O)C1CC(c2ccc(C(C)C)cc2)N(C(=O)OC(C)(C)C)C1=O (centres unmarked) [II-5] | – | 5.05
7 | CC(C)(C)OC(=O)N1C(=O)C(C(=O)c2ccc(Cl)c(Cl)c2)CC1c1ccccc1 (centres unmarked) [II-6] | – | 4.6
8 | CC(C)(C)OC(=O)N1C(=O)CCC1c1ccccc1 (centres unmarked) [III-2] | 2.52 | –
9 | CC(C)(C)OC(=O)N1C(=O)CCC1c1ccc(C(C)(C)C)cc1 (centres unmarked) [III-4] | 3.92 | –
10 | CC(C)c1ccc(C2CCC(=O)N2C(=O)OC(C)(C)C)cc1 (centres unmarked) [III-5] | 3.65 | –
11 | Cc1cc(Cl)ccc1C1CCC(=O)N1C(=O)OC(C)(C)C (centres unmarked) [III-6] | 3.24 | 3.25
12 | COc1ccc(C2CCC(=O)N2C(=O)OC(C)(C)C)cc1F (centres unmarked) [III-7] | 2.43 | –
13 | Cc1ccc(C2CCC(=O)N2C(=O)OC(C)(C)C)c(Cl)c1 (centres unmarked) [III-9] | 3.83 | –
14 | CC(C)(C)OC(=O)N1C(=O)CCC1c1ccc(Cl)cc1Cl (centres unmarked) [III-10] | 3.54 | –
15 | CC(C)(C)OC(=O)N1C(=O)CCC1c1ccc(Cl)c(Cl)c1 (centres unmarked) [III-11] | 3.29 | –
16 | CC(C)(C)OC(=O)N1C(=O)CCC1c1ccc(F)c(F)c1 (centres unmarked) [III-12] | 2.67 | –
17 | Cc1ccc(C2CCC(=O)N2C(=O)OC(C)(C)C)cc1Cl (centres unmarked) [III-14] | 3.3 | –
18 | CSc1ccc(C2CCC(=O)N2C(=O)OC(C)(C)C)cc1 (centres unmarked) [III-15] | 2.84 | 2.83
19 | CC(C)(C)OC(=O)N1C(=O)CCC1c1ccc(F)cc1F (centres unmarked) [III-16] | 2.69 | –
20 | Cc1ccc(C2CCC(=O)N2C(=O)OC(C)(C)C)c(C)c1 (centres unmarked) [III-17] | 3.2 | –
21 | CC(C)(C)OC(=O)N1C(=O)CCC1c1ccc(C2CCCCC2)cc1 (centres unmarked) [III-18] | 4.71 | –
22 | CCOc1cc(C(C)(C)C)ccc1C1CCC(=O)N1C(=O)OC(C)(C)C (centres unmarked) [III-28] | 4.4 | –

Second part, the compound after the results:

Row | chromatographic logP [1] | chromatographic logP [2] | SMILES
23 | 3.28 | – | CC(C)(C)OC(=O)N1C(=O)CCC1c1ccc(OC(F)(F)F)cc1 (centres unmarked) [III-1, tert-butyl 2-oxo-5-[4-(trifluoromethoxy)phenyl]-1-pyrrolidinecarboxylate]
24 | 4.67 | – | CC(C)(C)OC(=O)N1C(=O)CCC1c1ccc(-c2ccc(SC(F)(F)F)cc2)cc1 (centres unmarked) [III-3]
25 | 2.43 | – | COc1ccc(C2CCC(=O)N2C(=O)OC(C)(C)C)cc1 (centres unmarked) [III-8]
26 | 2.93 | – | CC(C)(C)OC(=O)N1C(=O)CCC1c1ccc(Cl)cc1 (centres unmarked) [III-13]
27 | 4.11 | – | CC(C)(C)OC(=O)N1C(=O)CCC1c1ccc(CCc2ccccc2)cc1 (centres unmarked) [III-19]
28 | 2.9 | – | Cc1ccc(C2CCC(=O)N2C(=O)OC(C)(C)C)cc1 (centres unmarked) [III-20]
29 | 2.57 | – | CC(C)(C)OC(=O)N1C(=O)CCC1c1ccc(F)cc1 (centres unmarked) [III-21]
30 | 4.17 | – | CC(C)Oc1ccc(-c2ccc(C3CCC(=O)N3C(=O)OC(C)(C)C)cc2)cc1 (centres unmarked) [III-23]
31 | 4.93 | – | CC(C)(C)OC(=O)N1C(=O)CCC1c1ccc(-c2ccc(OCc3ccc(Cl)cc3)cc2)cc1 (centres unmarked) [III-24]
32 | 5.03 | – | CC(C)(C)OC(=O)N1C(=O)CCC1c1ccc(-c2ccc(OCc3ccc(OC(F)(F)F)cc3)cc2)cc1 (centres unmarked) [III-25]
33 | 4.26 | – | CC(C)(C)OC(=O)N1C(=O)CCC1c1ccc(-c2ccc(Br)cc2)cc1 (centres unmarked) [III-27]

Source: patent publication US7250521B2, “Method for production of Δ1-pyrrolines” (Bayer CropScience Aktiengesellschaft, priority 2001, dated 2007)
